In BindingDB's records for patent US9394289 (Janssen Pharmaceutica, 2016) one finds IC50 data, which are given here for one molecule.

The test concerns the target Macrophage colony-stimulating factor 1 receptor (Homo sapiens, UniProt P07333). Briefly: Fluorescence Polarization Competition Immunoassay. As to conditions: pH 7.5; 25 °C. How it is done: The assay buffer used was 100 mM 4-(2-hydroxyethyl)piperazine 1-ethanesulfonic acid (HEPES), pH 7.5, 1 mM 1,4-dithio-DL-threitol (DTT), 0.01% (v/v) Tween-20. Compounds were diluted in assay buffer containing 4% dimethylsulfoxide (DMSO) just prior to the assay. To each well, 5 μL of compound were added followed by the addition of 3 μL of a mix containing 33 nM c-fms (Johnson & Johnson PRD) and 16.7 mM MgCl2 (Sigma) in assay buffer. The kinase reaction was initiated by adding 2 μL of 5 mM ATP (Sigma) in assay buffer. The final concentrations in the assay were 10 nM c-fms, 1 mM ATP, 5 mM MgCl2, 2% DMSO. Control reactions were ran in each plate: in positive and negative control wells, assay buffer (made 4% in DMSO) was substituted for the compound; in addition, positive control wells received 1.2 μL of 50 mM ethylenediaminetetraaceticacid (EDTA). The plates were incubated at room temperature for 45 min. At the end of the incubation, the reaction was quenched with 1.2 μL of 50 mM EDTA (EDTA was not added to the positive control wells at this point; see above). Following a 5-min incubation, each well received 10 μL of a 1:1:3 mixture of anti-phosphotyrosine antibody, 10×, PTK green tracer, 10× (vortexed), FP dilution buffer, respectively (all from PanVera, cat. #P2837). The plate was covered, incubated for 30 min at room temperature and the fluorescence polarization was read on the Analyst. […]
For orientation: Fluorescence polarisation rises when a labelled molecule tumbles more slowly, as on binding a larger partner.

Sequence of Macrophage colony-stimulating factor 1 receptor (P07333 whole entry): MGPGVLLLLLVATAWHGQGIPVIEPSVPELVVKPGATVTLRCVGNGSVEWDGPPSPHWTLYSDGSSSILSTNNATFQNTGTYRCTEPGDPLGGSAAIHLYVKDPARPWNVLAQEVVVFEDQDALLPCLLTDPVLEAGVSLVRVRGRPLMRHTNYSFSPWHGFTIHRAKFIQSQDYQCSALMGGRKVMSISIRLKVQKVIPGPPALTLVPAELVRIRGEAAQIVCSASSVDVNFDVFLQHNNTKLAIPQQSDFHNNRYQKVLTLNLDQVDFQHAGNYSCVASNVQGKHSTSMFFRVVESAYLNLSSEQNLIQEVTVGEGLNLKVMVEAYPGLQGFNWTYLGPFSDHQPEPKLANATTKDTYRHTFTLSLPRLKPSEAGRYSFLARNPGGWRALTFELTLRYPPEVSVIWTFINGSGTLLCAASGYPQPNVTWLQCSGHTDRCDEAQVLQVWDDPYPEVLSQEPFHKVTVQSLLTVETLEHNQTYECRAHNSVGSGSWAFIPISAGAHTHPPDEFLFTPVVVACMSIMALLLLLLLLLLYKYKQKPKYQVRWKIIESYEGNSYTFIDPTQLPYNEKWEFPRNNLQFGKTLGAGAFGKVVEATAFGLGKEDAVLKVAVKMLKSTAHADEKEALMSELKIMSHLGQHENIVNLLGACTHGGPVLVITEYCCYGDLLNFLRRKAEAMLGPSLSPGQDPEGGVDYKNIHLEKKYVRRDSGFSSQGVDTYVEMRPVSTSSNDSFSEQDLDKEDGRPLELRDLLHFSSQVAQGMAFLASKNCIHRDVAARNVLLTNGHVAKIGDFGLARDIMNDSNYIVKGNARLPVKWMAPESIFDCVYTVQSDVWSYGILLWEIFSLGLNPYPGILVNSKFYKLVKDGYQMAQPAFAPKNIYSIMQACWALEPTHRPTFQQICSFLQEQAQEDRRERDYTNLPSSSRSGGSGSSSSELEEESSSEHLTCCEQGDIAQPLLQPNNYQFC

One may read the IC50 as the concentration at which inhibition is half-maximal. Lower therefore signals greater potency in that assay. Molecule `N#Cc1c[nH]c(C(=O)Nc2ccc(C3(O)CCS(=O)(=O)CC3)cc2C2=CCCCC2)n1` [US9394289, 15] gave an IC50 of 2.9 nM.
